The text below walks through data of PMC12242638, “Drug Repurposing by Virtual Screening: Identification of New Already Approved ROCK Inhibitors as Promising Drugs to Target Neurodegeneration” (ACS Omega, 2025).

Entries after “also recorded” stand apart in the source; their conditions may differ.

What is called IC50 is the concentration that gives 50% inhibition.

For one data set, the target named is hROCK2 (Homo sapiens, UniProt O75116). Briefly: HotSpot Kinase Assay, ROCK2 inhibition (Reaction Biology Corp.). In kind it is biochemical. As for the experimental part: (§1) The HotSpot Kinase Assay was used for compound screening on protein kinases, as already reported. The assay was performed in a base reaction buffer containing 20 mM Hepes (pH 7.5), 10 mM MgCl2, 1 mM EGTA, 0.01% Brij-35, 0.02 mg/mL BSA, 0.1 mM Na3VO4, 2 mM DTT, and 1% DMSO, with the required cofactors added individually to each kinase reaction. The substrate was prepared in freshly made base reaction buffer, and cofactors were added accordingly. The indicated kinase was then delivered into the substrate solution and gently mixed. Test compounds, dissolved in 100% DMSO, were added to the kinase reaction mixture using acoustic technology (Echo550; nanoliter range), followed by incubation for 20 min at room temperature. The reaction was initiated by adding ^33P-ATP (1 μM) and incubating for 2 h at room temperature. Kinase activity was detected using the P81 filter-binding method.
hROCK2, sequence (O75116 whole entry): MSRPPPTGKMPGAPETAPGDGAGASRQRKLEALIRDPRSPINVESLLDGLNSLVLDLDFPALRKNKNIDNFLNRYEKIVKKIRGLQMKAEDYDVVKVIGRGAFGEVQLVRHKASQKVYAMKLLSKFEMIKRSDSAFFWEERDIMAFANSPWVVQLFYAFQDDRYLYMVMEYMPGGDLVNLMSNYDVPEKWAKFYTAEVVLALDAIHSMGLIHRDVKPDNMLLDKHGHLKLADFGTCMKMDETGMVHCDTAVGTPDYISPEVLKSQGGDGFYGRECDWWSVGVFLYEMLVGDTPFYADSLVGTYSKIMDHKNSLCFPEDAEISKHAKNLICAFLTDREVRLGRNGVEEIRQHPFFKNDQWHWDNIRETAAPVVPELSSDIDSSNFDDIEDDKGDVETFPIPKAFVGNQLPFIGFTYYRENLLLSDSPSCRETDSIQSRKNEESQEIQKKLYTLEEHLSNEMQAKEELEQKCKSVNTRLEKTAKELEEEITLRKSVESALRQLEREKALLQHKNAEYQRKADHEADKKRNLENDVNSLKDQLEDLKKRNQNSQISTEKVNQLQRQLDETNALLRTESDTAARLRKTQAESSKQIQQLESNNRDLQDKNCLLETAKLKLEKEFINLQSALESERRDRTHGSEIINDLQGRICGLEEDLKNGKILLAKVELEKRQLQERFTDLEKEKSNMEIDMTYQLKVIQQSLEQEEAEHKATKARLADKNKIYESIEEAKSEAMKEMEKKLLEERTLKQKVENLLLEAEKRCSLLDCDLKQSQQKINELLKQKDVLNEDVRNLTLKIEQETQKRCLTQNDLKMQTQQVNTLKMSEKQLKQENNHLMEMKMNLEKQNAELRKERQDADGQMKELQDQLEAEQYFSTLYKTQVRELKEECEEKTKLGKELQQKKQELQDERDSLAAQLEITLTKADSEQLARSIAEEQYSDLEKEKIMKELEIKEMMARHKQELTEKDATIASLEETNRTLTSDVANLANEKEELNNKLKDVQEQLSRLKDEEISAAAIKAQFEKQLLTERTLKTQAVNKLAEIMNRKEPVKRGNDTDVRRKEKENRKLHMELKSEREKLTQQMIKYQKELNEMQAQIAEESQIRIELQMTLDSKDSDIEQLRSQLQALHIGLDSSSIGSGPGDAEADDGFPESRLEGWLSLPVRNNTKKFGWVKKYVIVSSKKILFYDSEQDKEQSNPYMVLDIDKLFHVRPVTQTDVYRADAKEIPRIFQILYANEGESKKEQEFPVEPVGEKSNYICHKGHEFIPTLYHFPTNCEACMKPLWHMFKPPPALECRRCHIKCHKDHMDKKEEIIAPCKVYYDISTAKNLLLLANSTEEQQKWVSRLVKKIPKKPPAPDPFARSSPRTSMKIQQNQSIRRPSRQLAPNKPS

The target of the next data set is hROCK1 (Homo sapiens, UniProt Q13464). Briefly: HotSpot Kinase Assay, ROCK1 inhibition (Reaction Biology Corp.). In kind it is biochemical. Here is the method: as §1
hROCK1, sequence (Q13464 whole entry): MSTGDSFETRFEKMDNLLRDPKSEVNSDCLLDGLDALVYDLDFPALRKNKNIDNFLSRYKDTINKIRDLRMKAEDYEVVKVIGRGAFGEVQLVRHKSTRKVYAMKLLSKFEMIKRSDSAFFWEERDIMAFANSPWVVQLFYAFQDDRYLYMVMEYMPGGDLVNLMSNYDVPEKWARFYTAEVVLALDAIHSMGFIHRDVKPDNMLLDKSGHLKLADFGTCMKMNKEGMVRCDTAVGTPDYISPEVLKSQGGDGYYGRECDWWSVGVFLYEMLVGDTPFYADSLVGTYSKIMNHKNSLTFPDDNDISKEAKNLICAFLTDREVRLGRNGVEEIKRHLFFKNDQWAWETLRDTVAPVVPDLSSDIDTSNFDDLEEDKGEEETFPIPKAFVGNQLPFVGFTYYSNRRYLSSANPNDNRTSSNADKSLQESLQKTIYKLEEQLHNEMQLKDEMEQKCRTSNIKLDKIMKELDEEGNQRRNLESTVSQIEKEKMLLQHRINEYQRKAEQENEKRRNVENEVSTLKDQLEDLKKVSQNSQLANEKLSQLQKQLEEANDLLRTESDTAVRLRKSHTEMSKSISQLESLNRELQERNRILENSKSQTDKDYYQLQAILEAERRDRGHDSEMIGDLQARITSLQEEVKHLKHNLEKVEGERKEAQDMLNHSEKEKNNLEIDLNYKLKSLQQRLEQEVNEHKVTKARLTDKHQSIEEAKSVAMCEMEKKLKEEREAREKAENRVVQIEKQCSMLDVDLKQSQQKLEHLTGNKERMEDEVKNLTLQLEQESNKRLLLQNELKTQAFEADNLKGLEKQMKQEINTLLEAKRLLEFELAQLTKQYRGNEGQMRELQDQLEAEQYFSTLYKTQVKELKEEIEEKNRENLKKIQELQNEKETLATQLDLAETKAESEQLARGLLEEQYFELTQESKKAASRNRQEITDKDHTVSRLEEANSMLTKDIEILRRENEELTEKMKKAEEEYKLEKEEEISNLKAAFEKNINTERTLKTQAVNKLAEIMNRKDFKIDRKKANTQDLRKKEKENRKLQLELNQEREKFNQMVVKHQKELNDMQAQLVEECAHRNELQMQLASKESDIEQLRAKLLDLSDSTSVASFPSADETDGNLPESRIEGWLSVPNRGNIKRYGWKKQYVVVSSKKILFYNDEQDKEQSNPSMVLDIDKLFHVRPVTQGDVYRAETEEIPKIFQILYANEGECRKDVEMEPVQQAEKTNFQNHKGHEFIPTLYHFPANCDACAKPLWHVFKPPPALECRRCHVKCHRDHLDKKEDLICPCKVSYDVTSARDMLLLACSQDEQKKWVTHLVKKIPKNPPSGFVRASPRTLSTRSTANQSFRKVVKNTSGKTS
For data set [1] the following is noted: previously reported; cited from earlier work.
The test system of another data set is ROCK2. As to conditions: introduction, literature values; read-out: ROCK2 IC50 of approved ROCK inhibitors; cited from earlier work.
A further data set concerns ROCK1. As to conditions: introduction, literature values; read-out: ROCK1 IC50 of approved ROCK inhibitors; cited from earlier work.
Data set [2] deals with mouse hippocampal neurons. The conditions noted are these: primary cultures of mouse hippocampal neurons; cited from earlier work.
The target in another data set is PKCα (Homo sapiens, UniProt P17252). Briefly: HotSpot Kinase Assay, AGC kinase selectivity, PKCα. In kind it is biochemical. Here is the method:
as §1

In data set [3] the test system is murine primary astrocytes. Briefly: GFAP and C3 immunocytochemistry in LPS-treated primary cortical astrocytes. In kind it is cell-based, C57BL/6 mice (Mus musculus). The conditions noted are these: 24 h; for C3 immunostaining in LPS-treated astrocyte cultures: 1 μM ruxolitinib, LPS 10 μg/mL. As for the experimental part:
Primary cortical astrocyte cultures were prepared from brains of P0–3 C57BL/6 mice as described by Matias et al. The meninges of the brain were removed to cortex desiccation in Gey’s buffer, and the cerebral cortex was maintained in DMEM/F12, supplemented with 10% FBS. […] After 24 h, cultures were washed and fixed.
Astrocyte cultures were fixed with 4% PFA in phosphate-buffered saline (PBS, pH 7.4) for 15 min, and nonspecific sites were blocked with 3% BSA, 5% normal goat serum, and 0.2% Triton X-100 diluted in PBS for 1 h, before incubation with the rabbit anti-GFAP (1:1,000, DAKO Cytomation, Cat. Z0334) and the rat anti-C3 (1:100, Abcam, Cat. ab11862) at 4 °C overnight. Subsequently, the cells were thoroughly washed with PBS and incubated with secondary antibodies at room temperature for 2 h.

A further data set has as its system C6 cells. Briefly: MTT cell viability, C6 glioma cell line. It is filed as cell-based. As to conditions: 0.1 to 5 μM, 24 h. As for the experimental part:
(§2) Prior to the experiments, SH-SY5Y cells were cultured in DMEM/F12 plus 10% FBS (Fetal bovine serum, Invitrogene). […] The cells were incubated for 24 h under these conditions.
(§3) C6 and SH-SY5Y cells were plated in a 96-well plate with 1 × 10^4 cells per well. Cell morphology was observed using an EVOS phase-contrast microscope (Invitrogen, ThermoFisher Scientific, USA), and viability was evaluated using a 3-[4,5-dimethylthiazol-2-yl]-2,5-diphenyltetrazolium bromide (MTT) reduction assay. After 24 h of treatment, cells were incubated with 0.5 mg/mL MTT dye for 3 h at 37 °C and 5% CO2. This assay evaluates the labeling activity of mitochondrial dehydrogenases such as succinate dehydrogenase by reducing MTT (yellow) to a purple formazan salt. The culture media were removed, and the crystals were dissolved in 150 μL DMSO. The intensity of formazan was measured using a GloMax spectrophotometer (Promega) at a wavelength of 560 nm.

In the next data set the test system is SH-SY5Y cells. Briefly: MTT cell viability, SH-SY5Y cell line. In kind it is cell-based. The conditions noted are these: 0.1 to 5 μM, 24 h. Here is the method:
as §2, §3

With `CCS(=O)(=O)N1CC(CC#N)(n2cc(-c3ncnc4[nH]ccc34)cn2)C1` [Baricitinib (37), baricitinib], the IC50 at hROCK2 came to 0.011 µM; against hROCK1, 0.019 µM. Also, the “crossing of the blood-brain barrier (BBB)” value in data set [1] was “cross the blood-brain barrier (BBB)”.
With `CC(C)NC(=O)COc1cccc(-c2nc(Nc3ccc4[nH]ncc4c3)c3ccccc3n2)c1` [Belumosudil (4), Belumosudil], the IC50 is […] in the data set on ROCK2 and […] in the data set with ROCK1.
For `O=C1CCc2cc(OCCCCc3nnnn3C3CCCCC3)ccc2N1` [Cilostazole], the “ROCK2 % (30 µM), printed under IC50 ROCK2 head” value on hROCK2 (30 µM) was 8%. Further, the “ROCK1 % (30 µM), printed under IC50 ROCK1 head” value on hROCK1 (30 µM) came out at 3%.
Consider `O=S(=O)(c1cccc2cnccc12)N1CCCNCC1` [Fasudil (2), Fasudil], for which the “levels of Tau phosphorylation” value in [2] is recorded as “decreased the levels of Tau phosphorylation”. The IC50 in the data set with ROCK1 was […].
Take `Cc1ccc(C(=O)OCc2ccc([C@@H](CN)C(=O)Nc3ccc4cnccc4c3)cc2)c(C)c1` [Netarsudil (1), Netarsudil]: the IC50 with ROCK2 was […]; in the data set on ROCK1, […].
Turning to `O=C(CCNNC(=O)c1ccncc1)NCc1ccccc1` [Nialamide (40), nialamide], the IC50 was found to be 29.2 µM on hROCK2 and 18.8 µM against hROCK1.
For the compound `C[C@H]1CNCCCN1S(=O)(=O)c1cccc2cncc(F)c12` [Ripasudil (3), Ripasudil], the IC50 was 0.019 µM with ROCK2 and 0.051 µM in the data set on ROCK1.
Regarding `N#CC[C@H](C1CCCC1)n1cc(-c2ncnc3[nH]ccc23)cn1` [Ruxolitinib (36), ruxolitinib], the IC50 on PKCα was 1.25 µM. In addition, the “C3 immunostaining in LPS-treated astrocyte cultures” value is listed as “decreased C3 immunostaining; also recorded: reversed this event” in data set [3] (listed as ruxolitinib) and “reduce C3 immunolabeling” in data set [3] (listed as ruxolitinib (36)). In addition, the “GFAP intermediate filament organization and process extension of astrocytes” value in [3] (1 μM) was “did not impact intermediate filament organization and process extension”. In addition, the “cell viability (MTT), C6 glioma (astrocytic cell line)” value is recorded as “No significant impact on the viability” in the data set on C6 cells (listed as ruxolitinib) and “did not adversely affect the viability; also recorded: does not affect the viability” in the data set with C6 cells (listed as ruxolitinib (36)). The “cell viability (MTT), SH-SY5Y (neuronal cell line)” value in the data set on SH-SY5Y cells (listed as ruxolitinib) is listed as “No significant impact on the viability”; in the data set with SH-SY5Y cells (listed as ruxolitinib (36)), “did not adversely affect the viability; also recorded: does not affect the viability”. The “crossing of the blood-brain barrier (BBB)” value in [1] is “cross the blood-brain barrier (BBB)”.
As for `COc1cc2nccc(Oc3ccc(NC(=O)Nc4cc(C)on4)c(Cl)c3)c2cc1OC` [Tivozanib (39), tivozanib], the IC50 on hROCK2 amounted to 0.856 µM; against hROCK1, 12.9 µM. Further, the “selectivity for ROCK2 over ROCK1” value at hROCK2 (from the IC50 values) is recorded as 15 fold.
`Cc1cc(Nc2ncnc3ccc(NC4=NC(C)(C)CO4)cc23)ccc1Oc1ccn2ncnc2c1` [Tucatinib (41), tucatinib]: the IC50 on hROCK2 is 18.6 µM; on hROCK1 it was 51.5 µM.
